{"source": "patent US12122821B2", "about": "“Regulation of glucose metabolism using anti-CGRP antibodies” (H. LUNDBECK A/S, priority 2013, dated 2024)", "key": {"Normal rats [1]": {"tested_on": "Normal rats", "assay": "Individual tissue glucose utilization rate (14C-2-DOG) during clamp in normal rats (Example 1)", "format": "in vivo, rat", "conditions": "Ab14 100 mg/kg i.v., metformin 500 mg/kg p.o., vs vehicle", "procedure": "To determine the individual tissue glucose utilization rate, a bolus injection of 100 μCi per rat of deoxy-D-glucose 2-^14C (^14C-2-DOG) through the femoral vein was performed 60 min before the end of the D-[3-^3H]-glucose infusion. Plasma ^14C-2-DOG disappearance and glucose concentration were determined in 10 μL drops of blood sampled from the tip of the tail vein at 0, 5, 10, 15, 20, 25, 30, 45, and 60 minutes after the injection. At the end of the experiment, vastus lateralis (VL), extensor digitorum longus (EDL) and soleus muscles, epididymal and inguinal white adipose tissues, heart apex, and skin (as negative control) were dissected, flash frozen and kept at −80° C. A piece of each tissue was dissolved in 1M NaOH and then neutralized with 1M HCl. […]. D-2-^14C deoxyglucose was differentially precipitated by the use of a zinc hydroxide (0.3M) solution or a perchloric acid solution (6%). Both radioactivity contents were measured to evaluate the glucose uptake expressed as ng/mg/min."}, "[2]": {"tested_on": "Zucker diabetic fatty (ZDF) rat", "assay": "Plasma triglycerides, free fatty acids and cholesterol in ZDF rats (Example 3)", "format": "in vivo", "conditions": "for increase of free fatty acids levels: vs vehicle ZDF, not significant", "procedure": "For the groups treated with AB14, the antibody was administered once weekly via the caudal vein (i.v., 5 mL/kg) on days 1, 8, 15, and 22 at two different doses 20 mg/kg/week (groups 3 and 7) or 60 mg/kg/week (groups 4 and 8). All other groups were treated once weekly with vehicle 1 (i.v., 5 mL/kg). The intravenous treatments were performed in the morning on day 1, 8, 15, and 22 while under isoflurane anaesthesia. The volume of administration was individually adapted according to the most recent body weight.\nAll other groups were treated daily with vehicle 2 (p.o., 5 mL/kg) for 28 days. The most recent body weight was used to calculate the average volume of administration in each group.\nA fasting (6 hours on day 0 from 8:00 am to 02:00 pm, and overnight on day 12, 19 and 26 from ˜6:00 pm to ˜8:00 am) was performed before each blood collection. Blood was collected at ˜2:00 pm, from the tip of the tail, on day 0 (before screening, 150 μL, potassium EDTA), and at ˜8:00 am prior to dosing on days 12 (110 μL, potassium EDTA), 19 (150 μL, potassium EDTA) and 26, (110 μL, potassium EDTA).\nFasting blood glucose (glucometers) was measured on days 0, 12, 19, and 26. Fasting plasma insulin, peptide-C (ELISA method), free fatty acids, triglycerides, total cholesterol (colorimetric method), and HDL-cholesterol (phosphotungstate precipitation, colorimetric method) were measured on day 0, and prior to dosing on days 12, 19, and day 26. Non HDL-cholesterol was calculated as total cholesterol—HDL-cholesterol. Fructosamine was measured on days 0, 19 and 28. HbA1c (DCA 2000) was measured on days 0 and 28."}, "Normal rats [3]": {"tested_on": "Normal rats", "assay": "Hyperinsulinemic-euglycemic clamp, whole body glucose fluxes in normal rats (Example 1)", "format": "in vivo, rat", "conditions": "vs vehicle", "procedure": "To assess the effect on whole body insulin sensitivity, a clamp procedure was performed using 0.3 U/kg/h insulin and ^3H-glucose. Rats were fasted for 6 hours before 180 minutes of perfusion. Steady state was reached after 140 minutes of infusion and the means of glucose infusion rate (GIR), whole body glucose turn over (GTO), hepatic glucose production (HGP), glycolysis, and glycogen synthesis were calculated from 140 min. to 180 min. A bolus of 14-C-2-deoxyglucose was administered 1 hour before the end of the clamp to measure tissue specific glucose utilization.\nThe hyperinsulinemic-euglycemic clamp was performed using ^3H-glucose as a tracer and 0.3 U/kg/h insulin infusion from 02:00 pm (T0) to 05:00 pm (T+3 h). A glucose solution was infused in parallel and the infusion rate was adjusted to reach the steady state (˜100+/−10 mg/dL). Blood glucose was measured from the tip of the tail using glucometers every 10 minutes. Blood was collected (10 μL) from the tip of the tail during the last hour (steady state) and the following parameters were assessed: Glucose infusion rate; Whole body glucose utilization rate; Hepatic glucose production rate; Whole body glycogen and glycolytic rates.\nWhole body Glucose fluxes."}, "[4]": {"conditions": "clamp 0.3 U/kg/h insulin, 140-180 min, Ab14 100 mg/kg i.v., metformin 500 mg/kg p.o."}}}
{"smiles": "CN(C)C(=N)N=C(N)N", "note": "[metformin, reference compound]", "values": [{"measurement": "change of glucose utilization in the heart", "setting": "Normal rats [1]", "value": "−39", "unit": "%"}, {"measurement": "glucose utilization rate in white adipose tissues (deep and subcutaneous)", "setting": "Normal rats [1]", "value": "did not affect"}, {"measurement": "increase of glucose utilization in mixed vastus lateralis muscle (VL)", "setting": "Normal rats [1]", "value": 49, "unit": "%"}, {"measurement": "increase of glucose utilization in glycolytic extensor digitorum longus muscle (EDL)", "setting": "Normal rats [1]; NS", "value": 19, "unit": "%"}, {"measurement": "increase of plasma triglycerides levels", "setting": "[2]; day 12, metformin 200 mg/kg/day, vs vehicle", "value": 26, "unit": "%"}, {"measurement": "increase of free fatty acids levels", "setting": "[2]; day 12, metformin 200 mg/kg/day", "value": 14, "unit": "%"}, {"measurement": "increase of plasma triglycerides levels", "setting": "[2]; day 19, metformin 200 mg/kg/day, vs vehicle", "value": 40, "unit": "%"}, {"measurement": "increase of free fatty acids levels", "setting": "[2]; day 19, metformin 200 mg/kg/day", "value": 25, "unit": "%"}, {"measurement": "increase of plasma triglycerides levels", "setting": "[2]; day 26, metformin 200 mg/kg/day, vs vehicle", "value": 49, "unit": "%"}, {"measurement": "increase of free fatty acids levels", "setting": "[2]; day 26, metformin 200 mg/kg/day", "value": 8, "unit": "%"}, {"measurement": "non HDL-cholesterol levels", "setting": "[2]; metformin 200 mg/kg/day alone or in combination with AB14, vs vehicle", "value": "no effect"}, {"measurement": "plasma HDL-cholesterol", "setting": "[2]; metformin 200 mg/kg/day alone, vs vehicle", "value": "no effect"}, {"measurement": "GIR evolution during clamp", "setting": "Normal rats [3]; Ab14 100 mg/kg i.v., metformin 500 mg/kg p.o.", "value": "significantly increased"}, {"measurement": "increase of glucose infusion rate (GIR)", "setting": "Normal rats [3]; clamp 0.3 U/kg/h insulin, 140-180 min, Ab14 100 mg/kg i.v. 48 h before, metformin 500 mg/kg p.o. 24 h and 4 h before", "value": 27, "unit": "%"}, {"measurement": "increase of glycolysis rate", "setting": "Normal rats [3]; [4]", "value": 43, "unit": "%"}, {"measurement": "increase of whole body glucose turn over (GTO)", "setting": "Normal rats [3]; [4]", "value": 30, "unit": "%"}]}
